Assay results from ChEMBL document CHEMBL3286256 (J Med Chem, 2014).

Tests used:
[1] = biological target: T1, Retinal rod rhodopsin-sensitive cGMP 3',5'-cyclic phosphodiesterase subunit delta (Homo sapiens, UniProt O43924)
Description: Binding affinity to PDE-delta (unknown origin) assessed as shift in melting temperature

[2] = biological target: T1, Retinal rod rhodopsin-sensitive cGMP 3',5'-cyclic phosphodiesterase subunit delta; experiment: Binding affinity to His6-tagged PDE-delta (unknown origin) measured every 3 mins by fluorescence polarization assay

T1 sequence (O43924 whole entry): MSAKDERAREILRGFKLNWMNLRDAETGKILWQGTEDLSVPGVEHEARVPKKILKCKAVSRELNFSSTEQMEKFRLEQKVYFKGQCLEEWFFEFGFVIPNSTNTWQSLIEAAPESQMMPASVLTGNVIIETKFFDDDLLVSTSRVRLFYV

Question: How did the ΔTm [1] turn out when c1ccc(Cn2c(-c3ccc(OCC(C4CCNCC4)n4c(-c5ccccc5)nc5ccccc54)cc3)nc3ccccc32)cc1 (stereo not given) was run?
Answer: 20.5 °C

Question: How did the Kd [2] turn out when C=CC(=O)N1CCC(c2nc3ccccc3n2Cc2ccccc2)CC1 was run?
Answer: > 1000 nM

Question: How did the Kd [2] turn out when CC(C)c1nc(N(C)S(C)(=O)=O)nc(-c2ccc(F)cc2)c1/C=C/[C@@H](O)C[C@@H](O)CC(=O)O [ROSUVASTATIN] was run?
Answer: 1250 nM

Question: What does the source list for CC(C)(C)OC(=O)N1CCC(C(COc2ccc(-c3nc4ccccc4n3Cc3ccccc3)cc2)n2c(-c3ccccc3)nc3ccccc32)CC1 (stereo not given)?
Answer: Kd [2]: > 2000 nM; ΔTm [1]: 7.2 °C
